Patent US20060148014A1, “Tubulin isotype screening in cancer therapy using hemiasterlin analogs” (priority 2004, published 2006)

Key:
Type in all cases: cell-based
[1] = test system: HCC2218 human breast cancer cell line; assay: Cell growth inhibition assay (methylene blue), HCC2218; conditions: HC-2218, continuous presence of compound 4 or 7 days, at least three experiments, read-out: Average IC50
Source text: (§1) The following human breast cancer cell lines were obtained from the ATCC. Cells were maintained according to ATCC-recommended culture conditions. AU565 (ATCC Catalog No. ATCC Catalog. No. CRL-2351), BT-20 (ATCC Catalog No. HTB-19), MCF7 (ATCC Catalog No. HTB22), MDA-MB-231 (ATCC Catalog No. HTB-26), MDA-MB-435 (ATCC Catalog No. HTB-129), MDA-MB-468 (ATCC Catalog No. HTB-132), HCC38 (ATCC Catalog No. CRL-2314), HCC70 (ATCC Catalog No. CRL-2315), HCC1143 (ATCC Catalog No. CRL-2321), HCC1428 (ATCC Catalog No. CRL-2327), HCC1500 (ATCC Catalog No. CRL-2329), HCC1806 (ATCC Catalog No. CRL-2335), HCC1954 (ATCC Catalog No. CRL-2338), HCC2218 (ATCC Catalog No. CRL-2343), UACC-812 (ATCC Catalog No. CRL-1897), UACC-893 (ATCC Catalog No. CRL-1902), ZR-75-1 (ATCC Catalog No. CRL-1500), ZR-75-30 (ATCC Catalog No. CRL-1504).
(§2) Cultured human breast cancer cells were placed in 96-well plates and grown in the continuous presence of test compounds for 4 or 7 days. To expose the cells to test compounds for 7 days, medium was replaced with fresh medium containing compounds after 4 days of exposure and cells were incubated for 3 additional days. Cell growth was assessed using modifications (Amin et al., Cancer Res., 47:6040-6045, 1987; incorporated herein by reference) of a methylene blue-based microculture assay (Finlay et al., Anal. Biochem., 139:272-277, 1984; incorporated herein by reference).
(§3) To investigate the possible expression of PgP by the cell lines used in this study, the antiproliferative effects of paclitaxel were determined in the presence and absence of verapamil, a known inhibitor of PgP.

[2] = test system: MDA-MB-231 human breast cancer cell line; assay: Cell growth inhibition assay (methylene blue), MDA-MB-231; conditions: continuous presence of compound 4 or 7 days, at least three experiments, read-out: Average IC50
Source text: as §1, §2, §3

[3] = test system: ZR-75-30 human breast cancer cell line; assay: Cell growth inhibition assay (methylene blue), ZR-75-30; conditions: continuous presence of compound 4 or 7 days, at least three experiments, read-out: Average IC50
Source text: as §1, §2, §3

[4] = test system: HCC1419 human breast cancer cell line; assay: Cell growth inhibition assay (methylene blue), HCC1419; conditions: continuous presence of compound 4 or 7 days, at least three experiments, read-out: Average IC50
Protocol: as §2, §3

[5] = test system: HCC1500 human breast cancer cell line; assay: Cell growth inhibition assay (methylene blue), HCC1500; conditions: continuous presence of compound 4 or 7 days, at least three experiments, read-out: Average IC50
Source text: as §1, §2, §3

[6] = test system: MCF-7 human breast cancer cell line; assay: Cell growth inhibition assay (methylene blue), MCF-7; conditions: MCF7, continuous presence of compound 4 or 7 days, at least three experiments, read-out: Average IC50
Source text: as §1, §2, §3

[7] = test system: HCC1806 human breast cancer cell line; assay: Cell growth inhibition assay (methylene blue), HCC1806; conditions: continuous presence of compound 4 or 7 days, at least three experiments, read-out: Average IC50
Source text: as §1, §2, §3

[8] = test system: UACC-893 human breast cancer cell line; assay: Cell growth inhibition assay (methylene blue), UACC-893; conditions: continuous presence of compound 4 or 7 days, at least three experiments, read-out: Average IC50
Source text: as §1, §2, §3

[9] = test system: ZR-75-1 human breast cancer cell line; assay: Cell growth inhibition assay (methylene blue), ZR-75-1; conditions: continuous presence of compound 4 or 7 days, at least three experiments, read-out: Average IC50
Source text: as §1, §2, §3

[10] = test system: HCC38 human breast cancer cell line; assay: Cell growth inhibition assay (methylene blue), HCC38; conditions: continuous presence of compound 4 or 7 days, at least three experiments, read-out: Average IC50
Source text: as §1, §2, §3

[11] = test system: HCC1428 human breast cancer cell line; assay: Cell growth inhibition assay (methylene blue), HCC1428; conditions: continuous presence of compound 4 or 7 days, at least three experiments, read-out: Average IC50
Source text: as §1, §2, §3

[12] = test system: HCC1954 human breast cancer cell line; assay: Cell growth inhibition assay (methylene blue), HCC1954; conditions: continuous presence of compound 4 or 7 days, at least three experiments, read-out: Average IC50
Source text: as §1, §2, §3

[13] = test system: HCC1143 human breast cancer cell line; assay: Cell growth inhibition assay (methylene blue), HCC1143; conditions: continuous presence of compound 4 or 7 days, at least three experiments, read-out: Average IC50
Source text: as §1, §2, §3

[14] = test system: HCC70 human breast cancer cell line; assay: Cell growth inhibition assay (methylene blue), HCC70; conditions: continuous presence of compound 4 or 7 days, at least three experiments, read-out: Average IC50
Source text: as §1, §2, §3

[15] = test system: MDA-MB-435 human breast cancer cell line; assay: Cell growth inhibition assay (methylene blue), MDA-MB-435; conditions: continuous presence of compound 4 or 7 days, at least three experiments, read-out: Average IC50
Source text: as §1, §2, §3

[16] = test system: panel of 19 human breast cancer cell lines; assay: Cell growth inhibition assay, panel of 19 human breast cancer cell lines; conditions: for fold-difference between IC50's in the most sensitive and the least sensitive cell line: panel of 19 human breast cancer cell lines
Source text: as §1, §2
Antiproliferative effects of four tubulin-binding anticancer agents were evaluated by a methylene blue-based cell growth inhibin assay in a panel of 19 human breast cancer cell lines. The following agents were used in this study: halichondrin analog E7389, hemiasterlin analog E7974, vinblastine, and paclitaxel. Each IC50 determination was conducted in at least three separate experiments. A presence of multidrug resistance efflux pump (P-glycoprotein or PgP) could markedly affect sensitivity of cell lines to test agents and thus mask correlations between beta-tubulin expression and cell lines' sensitivity to test agents. Cell lines were therefore tested for evidence of PgP expression by monitoring effects of the PgP blocker verapamil (used at a 10 μM concentration) on paclitaxel sensitivity. No evidence for PgP expression was found in any of the cell lines tested (Table 4). […] Inter-drug correlations were seen between sensitivities to the three microtubule polymerization inhibitors E7974, E7389, and vinblastine, but not between the microtubule polymerization stabilizer paclitaxel.

[17] = test system: BT-20 human breast cancer cell line; assay: Cell growth inhibition assay (methylene blue), BT-20; conditions: continuous presence of compound 4 or 7 days, at least three experiments, read-out: Average IC50
Source text: as §1, §2, §3

[18] = test system: MDA-MB-468 human breast cancer cell line; assay: Cell growth inhibition assay (methylene blue), MDA-MB-468; conditions: continuous presence of compound 4 or 7 days, at least three experiments, read-out: Average IC50
Source text: as §1, §2, §3

[19] = test system: UACC-812 human breast cancer cell line; assay: Cell growth inhibition assay (methylene blue), UACC-812; conditions: continuous presence of compound 4 or 7 days, at least three experiments, read-out: Average IC50
Source text: as §1, §2, §3

[20] = test system: AU565 human breast cancer cell line; assay: Cell growth inhibition assay (methylene blue), AU565; conditions: continuous presence of compound 4 or 7 days, at least three experiments, read-out: Average IC50
Source text: as §1, §2, §3

Row | IC50 [1] [pM] | IC50 [2] [pM] | IC50 [3] [pM] | IC50 [4] [pM] | IC50 [5] [pM] | IC50 [6] [pM] | IC50 [7] [pM] | IC50 [8] [pM] | IC50 [9] [pM] | IC50 [10] [pM] | IC50 [11] [pM] | IC50 [12] [pM] | IC50 [13] [pM] | IC50 [15] [pM] | fold-difference between IC50's in the most sensitive and the least sensitive cell line [16] [fold] | IC50 [17] [pM] | IC50 [18] [pM] | IC50 [19] [pM] | IC50 [20] [pM] | SMILES | IC50 [14] [pM] | further results
1 | 1560 | 1600 | 2400 | 1700 | 560 | 890 | 860 | 1320 | 1720 | 730 | 550 | 700 | 530 | 430 | 5.6 | 1150 | 820 | 1110 | 1050 | CC[C@]1(O)C[C@@H]2CN(CCc3c([nH]c4ccccc34)[C@@](C(=O)OC)(c3cc4c(cc3OC)N(C)[C@H]3[C@@](O)(C(=O)OC)[C@H](OC(C)=O)[C@]5(CC)C=CCN6CC[C@]43[C@@H]65)C2)C1 [Vinblastine, vinblastine] | 800 | 
2 | 1140 | 1750 | 1800 | 1590 | 560 | 1450 | 740 | 310 | 1190 | 400 | 530 | 370 | 430 | 290 | 6.2 | 820 | 450 | 1170 | 650 | C=C1C[C@@H]2CC[C@@]34C[C@H]5O[C@H]6[C@@H](O3)[C@H]3O[C@H](CC[C@@H]3O[C@H]6[C@H]5O4)CC(=O)C[C@@H]3[C@@H](OC)[C@@H](C[C@H](O)CN)O[C@H]3C[C@H]3O[C@@H](CC[C@@H]1O2)C[C@@H](C)C3=C [E7389] | 630 | IC50 ([16]; range over 19 human breast cancer cell lines): 290 to 1800 pM
